{"source": "patent US8809280B2", "about": "“Therapeutic peptides” (Lytix Biopharma AS, priority 2009, dated 2014)", "key": {"[1]": {"system": "Escherichia coli (ATTC 25922)", "test": "microbe, parasite or virus in culture", "type": "cell-based", "conditions": "for Therapeutic index E. coli: EC50 RBC divided by MIC; for MIC: Escherichia coli, ATCC25922, Example 4, ATCC 25922, di-trifluoroacetate salts, highest concentration tested 200 μg/ml, read-out: MIC E. coli", "in_short": "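Broth dilution in 2% Bacto Peptone water, inoculum 2×10^6 cfu/ml of exponential-phase bacteria; compounds (di-TFA salts) tested in duplicate at 200 down to 0.5 μg/ml. Growth judged by well turbidity, with no-peptide negative and gentamicin positive controls.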"}, "[2]": {"system": "methicillin resistant Staphylococcus aureus (ATCC 33591)", "test": "microbe, parasite or virus in culture", "type": "cell-based", "conditions": "for Therapeutic index MRSA: EC50 RBC divided by MIC; for MIC: Staphylococcus aureus, ATCC33591, Example 4, ATCC 33591, di-trifluoroacetate salts, highest concentration tested 200 μg/ml, read-out: MIC MTRSA", "in_short": "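Di-TFA salts tested in duplicate at 200 down to 0.5 μg/ml against exponentially grown bacteria at 2×10^6 cfu/ml. Growth judged by well turbidity, with no-peptide and gentamicin controls.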"}, "[3]": {"test": "Phospholipid vesicle based barrier model permeability", "type": "in vitro ADME", "conditions": "for permeability, model's classification of absorption: phospholipid vesicle based barrier model", "description": "Encouraged by the theoretical calculations, the permeability of the β^2,2-amino acid derivatives was further investigated using a recently established phospholipid vesicle based barrier model (Flaten et al. Eur. J. Pharm. Sci. [2006] 27, 80-90)."}, "[4]": {"system": "Staphylococcus aureus (ATTC 25923)", "test": "microbe, parasite or virus in culture", "type": "cell-based", "conditions": "for Therapeutic index S. aureus: EC50 RBC divided by MIC; for MIC: Staphylococcus aureus, ATCC25923, Example 4, ATCC 25923, di-trifluoroacetate salts, highest concentration tested 200 μg/ml, read-out: MIC S. aureus", "in_short": "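Di-TFA salts tested in duplicate at 0.5–200 μg/ml against exponential-phase bacteria at 2×10^6 cfu/ml grown in 2% peptone water. Growth judged by well turbidity, with no-peptide and gentamicin controls.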"}, "[5]": {"system": "methicillin resistant Staphylococcus epidermidis (ATCC 27626)", "test": "microbe, parasite or virus in culture", "type": "cell-based", "conditions": "for Therapeutic index MRSE: EC50 RBC divided by MIC; for MIC: Staphylococcus epidermidis, ATCC 27626 / MRSE, Example 4, ATCC 27626, di-trifluoroacetate salts, highest concentration tested 200 μg/ml, read-out: MIC MRSE", "in_short": "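Exponentially grown bacteria (2% peptone water) at 2×10^6 cfu/ml exposed in duplicate to di-TFA salts at 0.5–200 μg/ml. Growth or no growth judged by well turbidity; no-peptide and gentamicin controls included.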"}, "[6]": {"system": "Pseudomonas aeruginosa (ATCC 27853)", "test": "microbe, parasite or virus in culture", "type": "cell-based", "conditions": "for MIC: Pseudomonas aeruginosa, ATCC27853, Example 4, ATCC 27853, di-trifluoroacetate salts, highest concentration tested 200 μg/ml, read-out: MIC P. aeruginosa; for Therapeutic index P. aeruginosa: EC50 RBC divided by MIC", "method": "Each compound was tested in duplicates at 200, 100, 50, 35, 15, 10, 5, 2.5, 1, 0.5 μg/ml. All tested compounds were di-trifluoroacetic acid salts."}, "[7]": {"system": "human red blood cells", "test": "cells", "type": "cell-based", "conditions": "Erythrocyte; Example 4; hemolytic activity, human red blood cells; highest concentration tested 1000 μg/ml; read-out: EC50 RBC", "in_short": "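Washed heparinized RBCs, diluted to 10% hematocrit then to 1% v/v final, incubated with compounds in PBS (1–1000 μg/mL) for 1 h at 37 °C with agitation. Hemoglobin release read at 405 nm against PBS (0%) and 0.1% Triton X-100 (100%); value reported is concentration giving 50% hemolysis.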"}}}
{"smiles": "CN1CCN(C(=O)C(CN)(Cc2ccc3ccccc3c2)Cc2ccc3ccccc3c2)CC1", "note": "[Entry 5c]", "values": [{"measurement": "Therapeutic index E. coli", "setting": "[1]", "value": 14}, {"measurement": "MIC", "setting": "[1]", "value": 22, "unit": "µM"}, {"measurement": "Therapeutic index MRSA", "setting": "[2]", "value": 41}, {"measurement": "MIC", "setting": "[2]", "value": 7.4, "unit": "µM"}, {"measurement": "experimental permeability values, rank", "setting": "[3]; among 4c, 5c, 6c and 7c", "value": "highest permeability"}, {"measurement": "permeability, model's classification of absorption", "setting": "[3]", "value": "moderately absorbed in humans"}, {"measurement": "Therapeutic index S. aureus", "setting": "[4]", "value": 20}, {"measurement": "MIC", "setting": "[4]", "value": 15, "unit": "µM"}, {"measurement": "Therapeutic index MRSE", "setting": "[5]", "value": 20}, {"measurement": "MIC", "setting": "[5]", "value": 15, "unit": "µM"}, {"measurement": "MIC", "setting": "[6]", "value": "> 200", "unit": "µg/mL"}, {"measurement": "EC50", "setting": "[7]", "value": 303, "unit": "µM"}]}
{"smiles": "CN1CCN(C(=O)C(CN)(Cc2ccc(C(C)(C)C)cc2)Cc2ccc(C(C)(C)C)cc2)CC1", "note": "[Entry 5d]", "values": [{"measurement": "Therapeutic index E. coli", "setting": "[1]", "value": 23}, {"measurement": "MIC", "setting": "[1]", "value": 15, "unit": "µM"}, {"measurement": "Therapeutic index MRSA", "setting": "[2]", "value": 23}, {"measurement": "MIC", "setting": "[2]", "value": 15, "unit": "µM"}, {"measurement": "Therapeutic index S. aureus", "setting": "[4]", "value": 23}, {"measurement": "MIC", "setting": "[4]", "value": 15, "unit": "µM"}, {"measurement": "Therapeutic index MRSE", "setting": "[5]", "value": 48}, {"measurement": "MIC", "setting": "[5]", "value": 7.2, "unit": "µM"}, {"measurement": "Therapeutic index P. aeruginosa", "setting": "[6]", "value": 1.2}, {"measurement": "MIC", "setting": "[6]", "value": 289, "unit": "µM"}, {"measurement": "EC50", "setting": "[7]", "value": 348, "unit": "µM"}]}
{"smiles": "CN(C)CCNC(=O)C(CN)(Cc1ccc2ccccc2c1)Cc1ccc2ccccc2c1", "note": "[Entry 6c]", "values": [{"measurement": "Therapeutic index E. coli", "setting": "[1]", "value": 5.1}, {"measurement": "MIC", "setting": "[1]", "value": 23, "unit": "µM"}, {"measurement": "Therapeutic index MRSA", "setting": "[2]", "value": 16}, {"measurement": "MIC", "setting": "[2]", "value": 7.5, "unit": "µM"}, {"measurement": "permeability, model's classification of absorption", "setting": "[3]", "value": "moderately absorbed in humans"}, {"measurement": "Therapeutic index S. aureus", "setting": "[4]", "value": 16}, {"measurement": "MIC", "setting": "[4]", "value": 7.5, "unit": "µM"}, {"measurement": "Therapeutic index MRSE", "setting": "[5]", "value": 16}, {"measurement": "MIC", "setting": "[5]", "value": 7.5, "unit": "µM"}, {"measurement": "Therapeutic index P. aeruginosa", "setting": "[6]", "value": 0.4}, {"measurement": "MIC", "setting": "[6]", "value": 300, "unit": "µM"}, {"measurement": "EC50", "setting": "[7]", "value": 117, "unit": "µM"}]}
{"smiles": "CN(C)CCNC(=O)C(CN)(Cc1ccc(C(C)(C)C)cc1)Cc1ccc(C(C)(C)C)cc1", "note": "[Entry 6d]", "values": [{"measurement": "Therapeutic index E. coli", "setting": "[1]", "value": 37}, {"measurement": "MIC", "setting": "[1]", "value": 7.4, "unit": "µM"}, {"measurement": "Therapeutic index MRSA", "setting": "[2]", "value": 37}, {"measurement": "MIC", "setting": "[2]", "value": 7.4, "unit": "µM"}, {"measurement": "Therapeutic index S. aureus", "setting": "[4]", "value": 37}, {"measurement": "MIC", "setting": "[4]", "value": 7.4, "unit": "µM"}, {"measurement": "Therapeutic index MRSE", "setting": "[5]", "value": 74}, {"measurement": "MIC", "setting": "[5]", "value": 3.7, "unit": "µM"}, {"measurement": "Therapeutic index P. aeruginosa", "setting": "[6]", "value": 3.7}, {"measurement": "MIC", "setting": "[6]", "value": 74, "unit": "µM"}, {"measurement": "EC50", "setting": "[7]", "value": 274, "unit": "µM"}]}
{"smiles": "NCCNC(=O)C(CN)(Cc1ccc2ccccc2c1)Cc1ccc2ccccc2c1", "note": "[Entry 7c]", "values": [{"measurement": "Therapeutic index E. coli", "setting": "[1]", "value": 19}, {"measurement": "MIC", "setting": "[1]", "value": 24, "unit": "µM"}, {"measurement": "Therapeutic index MRSA", "setting": "[2]", "value": 59}, {"measurement": "MIC", "setting": "[2]", "value": 7.8, "unit": "µM"}, {"measurement": "permeability, model's classification of absorption", "setting": "[3]", "value": "moderately absorbed in humans"}, {"measurement": "Therapeutic index S. aureus", "setting": "[4]", "value": 117}, {"measurement": "MIC", "setting": "[4]", "value": 3.9, "unit": "µM"}, {"measurement": "Therapeutic index MRSE", "setting": "[5]", "value": 117}, {"measurement": "MIC", "setting": "[5]", "value": 3.9, "unit": "µM"}, {"measurement": "Therapeutic index P. aeruginosa", "setting": "[6]", "value": 8.3}, {"measurement": "MIC", "setting": "[6]", "value": 55, "unit": "µM"}, {"measurement": "EC50", "setting": "[7]", "value": 457, "unit": "µM"}]}
{"smiles": "CC(C)(C)c1ccc(CC(CN)(Cc2ccc(C(C)(C)C)cc2)C(=O)NCCN)cc1", "note": "[Entry 7d]", "values": [{"measurement": "Therapeutic index E. coli", "setting": "[1]", "value": 2.3}, {"measurement": "MIC", "setting": "[1]", "value": 7.7, "unit": "µM"}, {"measurement": "Therapeutic index MRSA", "setting": "[2]", "value": 4.7}, {"measurement": "MIC", "setting": "[2]", "value": 3.8, "unit": "µM"}, {"measurement": "Therapeutic index S. aureus", "setting": "[4]", "value": 4.7}, {"measurement": "MIC", "setting": "[4]", "value": 3.8, "unit": "µM"}, {"measurement": "Therapeutic index MRSE", "setting": "[5]", "value": 4.7}, {"measurement": "MIC", "setting": "[5]", "value": 3.8, "unit": "µM"}, {"measurement": "Therapeutic index P. aeruginosa", "setting": "[6]", "value": 0.8}, {"measurement": "MIC", "setting": "[6]", "value": 23, "unit": "µM"}, {"measurement": "EC50", "setting": "[7]", "value": 18, "unit": "µM"}]}
